Laboratory results published in US20240208992A1, “MACROCYCLES AS CFTR MODULATORS” (Idorsia Pharmaceuticals Ltd, priority 2021, published 2024).

Target: human F508del-CFTR (Homo sapiens, UniProt P13569, DEL508-508)
Test: F508del-CFTR cell surface expression (corrector activity), DiscoveRx ß-galactosidase complementation chemiluminescence assay in recombinant U2OS cell line;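 further: U2OS cells co-expressing ProLink-tagged F508del-CFTR and a membrane-anchored enzyme acceptor, where more surface CFTR restores β-galactosidase activity measured by chemiluminescence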
Conditions: for EC50: EC50, F508del-CFTR cell surface expression; for Emax: U2OS
[1] = U2OS cells, 16h compound incubation, geomean values
[2] = in relation to Emax of corrector lumacaftor (=100%), arithmetic mean values
[3] = U2OS cells, 16h compound incubation, geomean of several measurements
[4] = in relation to the Emax of the corrector lumacaftor (=100%), U2OS cells, 16h compound incubation, arithmetic mean
[5] = U2OS cell line, 16h compound incubation, geomean values
[6] = in relation to the Emax of the corrector lumacaftor (=100%), U2OS cell line, 16h compound incubation, arithmetic mean values

human F508del-CFTR, sequence (P13569 with tags, fused parts or gaps DEL508-508): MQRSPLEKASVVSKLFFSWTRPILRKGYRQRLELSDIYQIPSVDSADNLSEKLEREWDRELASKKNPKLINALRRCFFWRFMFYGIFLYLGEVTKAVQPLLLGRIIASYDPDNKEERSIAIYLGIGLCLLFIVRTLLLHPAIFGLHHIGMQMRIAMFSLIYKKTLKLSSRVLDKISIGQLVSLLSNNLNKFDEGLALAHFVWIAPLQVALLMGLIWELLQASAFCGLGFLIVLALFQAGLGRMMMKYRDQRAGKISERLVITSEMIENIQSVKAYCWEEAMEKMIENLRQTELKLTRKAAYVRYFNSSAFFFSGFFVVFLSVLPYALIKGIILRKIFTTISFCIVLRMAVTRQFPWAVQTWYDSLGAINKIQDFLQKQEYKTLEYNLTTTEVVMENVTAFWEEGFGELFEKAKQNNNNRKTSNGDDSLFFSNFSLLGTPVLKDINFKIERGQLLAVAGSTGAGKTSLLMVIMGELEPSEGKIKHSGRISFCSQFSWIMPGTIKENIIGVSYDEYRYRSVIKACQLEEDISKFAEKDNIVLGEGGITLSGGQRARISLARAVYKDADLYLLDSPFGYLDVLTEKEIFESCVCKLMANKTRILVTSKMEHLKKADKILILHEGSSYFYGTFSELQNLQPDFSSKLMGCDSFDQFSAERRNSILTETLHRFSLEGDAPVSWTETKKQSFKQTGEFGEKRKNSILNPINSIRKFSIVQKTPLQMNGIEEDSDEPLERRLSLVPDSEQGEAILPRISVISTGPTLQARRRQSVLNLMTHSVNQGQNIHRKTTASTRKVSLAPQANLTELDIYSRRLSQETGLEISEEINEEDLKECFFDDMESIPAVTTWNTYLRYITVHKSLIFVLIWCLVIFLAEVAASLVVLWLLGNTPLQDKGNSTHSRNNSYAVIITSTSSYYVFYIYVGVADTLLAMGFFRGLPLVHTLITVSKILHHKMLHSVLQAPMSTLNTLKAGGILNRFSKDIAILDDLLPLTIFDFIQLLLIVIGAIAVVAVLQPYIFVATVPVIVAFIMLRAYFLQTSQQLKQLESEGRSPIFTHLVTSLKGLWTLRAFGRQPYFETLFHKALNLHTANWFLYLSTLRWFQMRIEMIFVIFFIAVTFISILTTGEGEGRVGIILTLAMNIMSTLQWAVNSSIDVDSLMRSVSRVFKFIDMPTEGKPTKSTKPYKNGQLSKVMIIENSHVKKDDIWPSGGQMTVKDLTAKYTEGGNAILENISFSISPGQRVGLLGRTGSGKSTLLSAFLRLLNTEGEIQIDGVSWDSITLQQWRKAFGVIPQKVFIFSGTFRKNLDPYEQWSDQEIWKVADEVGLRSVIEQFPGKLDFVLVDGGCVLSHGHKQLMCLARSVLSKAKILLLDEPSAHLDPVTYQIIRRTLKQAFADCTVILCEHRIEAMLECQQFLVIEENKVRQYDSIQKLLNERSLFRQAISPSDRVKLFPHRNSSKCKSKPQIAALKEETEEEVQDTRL

SMILES	EC50 [5]	Emax [6]	further results
Cc1nc2ccc3c(c2o1)C(=O)N[C@H](C(=O)NCCc1cccc(OC(F)F)c1)CC(=O)N(C)[C@@H](CC(C)C)C(=O)N1CCN(C2CC2)C[C@@H]1C(=O)N[C@H](Cc1ccccc1)CO3 [Example 419, (8S,12S,18aR,21R)-21-benzyl-17-cyclopropyl-N-(3-(difluoromethoxy)phenethyl)-12-isobutyl-4,11-dimethyl-6,10,13,19-tetraoxo-6,7,8,9,10,11,12,13,16,17,18,18a,19,20,21,22-hexadecahydro-15H-oxazolo[4′,5′:5,6]benzo[1,2-p]pyrazino[2,1-f][1]oxa[4,7,10,14]tetraazacycloheptadecine-8-carboxamide]			EC50 [1]: 0.358 µM; Emax [2]: 243%
COc1cc(CCNC(=O)[C@@H]2CC(=O)N(C)[C@@H](CC(C)C)C(=O)N(C)[C@H](CC(C)(C)C)C(=O)N[C@H](Cc3ccccc3)COc3cc(C)nc(OC)c3C(=O)N2)on1 [Example 878, (3R,6R,9S,13S)-3-benzyl-9-isobutyl-16-methoxy-N-(2-(3-methoxyisoxazol-5-yl)ethyl)-7,10,18-trimethyl-6-neopentyl-5,8,11,15-tetraoxo-2,3,4,5,6,7,8,9,10,11,12,13,14,15-tetradecahydropyrido[3,4-p][1]oxa[4,7,10,14]tetraazacycloheptadecine-13-carboxamide]			EC50 [3]: 0.027 µM; Emax [4]: 336%
COc1cccc(CCNC(=O)[C@@H]2CC(=O)N(C)[C@@H](CC(C)C)C(=O)N3CCN(CC(C)C)C[C@@H]3C(=O)N[C@H](Cc3ccccc3)COc3ccc4ncn(C)c4c3C(=O)N2)c1 [Example 364, (8S,12S,18aR,21R)-21-benzyl-12,17-diisobutyl-N-(3-methoxyphenethyl)-5,11-dimethyl-6,10,13,19-tetraoxo-6,7,8,9,10,11,12,13,16,17,18,18a,19,20,21,22-hexadecahydro-5H,15H-imidazo[4′,5′:5,6]benzo[1,2-p]pyrazino[2,1-f][1]oxa[4,7,10,14]tetraazacycloheptadecine-8-carboxamide]	0.264 µM	201%	
COc1cccc2c1C(=O)N[C@H](C(=O)NCCc1ccc3c(c1)OCC3)CC(=O)N(C)[C@@H](CC(C)C)C(=O)N(CCC1CCCCC1)CC(=O)N[C@H](Cc1ccccc1)CO2 (mixture of isomers) [Example 15, (3R,9S,13RS)-3-benzyl-7-(2-cyclohexylethyl)-N-(2-(2,3-dihydrobenzofuran-6-yl)ethyl)-9-isobutyl-16-methoxy-10-methyl-5,8,11,15-tetraoxo-2,3,4,5,6,7,8,9,10,11,12,13,14,15-tetradecahydrobenzo[p][1]oxa[4,7,10,14]tetraazacycloheptadecine-13-carboxamide]	0.187 µM		
CC(C)C[C@H]1C(=O)N(CCC2CCCCC2)CC(=O)N[C@H](Cc2ccccc2)COc2ccncc2C(=O)N[C@H](C(=O)NCCc2ccc3c(c2)OCCC3)CC(=O)N1C [Example 261, (3R,9S,13S)-3-benzyl-N-(2-(chroman-7-yl)ethyl)-7-(2-cyclohexylethyl)-9-isobutyl-10-methyl-5,8,11,15-tetraoxo-2,3,4,5,6,7,8,9,10,11,12,13,14,15-tetradecahydropyrido[3,4-p][1]oxa[4,7,10,14]tetraazacycloheptadecine-13-carboxamide]	0.327 µM	215%	
[2H]C([2H])([2H])Oc1nc(C)cc2c1C(=O)N[C@H](C(=O)NCCc1cc(OC)no1)CC(=O)N(C)[C@@H](CC(C)C)C(=O)N1CCCC[C@@H]1C(=O)N[C@H](Cc1ccccc1)CO2 [Example 581, (7S,11S,17aR,20R)-20-benzyl-11-isobutyl-4-(methoxy-d3)-N-(2-(3-methoxyisoxazol-5-yl)ethyl)-2,10-dimethyl-5,9,12,18-tetraoxo-5,6,7,8,9,10,11,12,15,16,17,17a,18,19,20,21-hexadecahydro-14H-dipyrido[2,1-f:3′,4′-p][1]oxa[4,7,10,14]tetraazacycloheptadecine-7-carboxamide]			EC50 [1]: 0.3 µM; Emax [2]: 303%
CC(C)C[C@H]1C(=O)N2CCCC[C@@H]2C(=O)N[C@H](Cc2ccccc2)COc2ccc3ncn(C)c3c2C(=O)N[C@H](C(=O)NCCc2ccccc2)CC(=O)N1C (racemic) [Example 27, (8RS,12S,18aR,21R)-21-benzyl-12-isobutyl-5,11-dimethyl-6,10,13,19-tetraoxo-N-phenethyl-6,7,8,9,10,11,12,13,16,17,18,18a,19,20,21,22-hexadecahydro-5H,15H-imidazo[4′,5′:5,6]benzo[1,2-p]pyrido[2,1-f][1]oxa[4,7,10,14]tetraazacycloheptadecine-8-carboxamide]	0.474 µM	114%	
CC(C)C[C@H]1C(=O)N(C)[C@H](C)C(=O)N[C@H](Cc2ccccc2)COc2ccc3ncc(F)cc3c2C(=O)N[C@H](C(=O)NCCc2noc(C3CC3)n2)CC(=O)N1C [Example 799, (3S,7S,10R,13R)-13-benzyl-N-(2-(5-cyclopropyl-1,2,4-oxadiazol-3-yl)ethyl)-20-fluoro-7-isobutyl-6,9,10-trimethyl-1,5,8,11-tetraoxo-1,2,3,4,5,6,7,8,9,10,11,12,13,14-tetradecahydro-[1]oxa[4,7,10,14]tetraazacycloheptadecino[16,17-f]quinoline-3-carboxamide]			EC50 [3]: 0.258 µM; Emax [4]: 335%
CC(C)C[C@H]1C(=O)N2CCCC[C@@H]2C(=O)N[C@H](Cc2ccccc2)COc2cnc3ccc(F)cc3c2C(=O)N[C@H](C(=O)NCCc2noc(C(C)C)n2)CC(=O)N1C [Example 171, (9S,13S,19aR,22R)-22-benzyl-5-fluoro-13-isobutyl-N-(2-(5-isopropyl-1,2,4-oxadiazol-3-yl)ethyl)-12-methyl-7,11,14,20-tetraoxo-7,8,9,10,11,12,13,14,17,18,19,19a,20,21,22,23-hexadecahydro-16H-pyrido[2′,1′:6,7][1]oxa[4,7,10,14]tetraazacycloheptadecino[17,16-c]quinoline-9-carboxamide]	0.144 µM	301%	
COc1cccc(CCNC(=O)[C@@H]2CC(=O)N(C)[C@@H](CC(C)C)C(=O)N3CCN(CC(C)C)C[C@@H]3C(=O)N[C@H](Cc3ccccc3)COc3cnc4ccccc4c3C(=O)N2)c1 [Example 372, (9S,13S,19aR,22R)-22-benzyl-13,18-diisobutyl-N-(3-methoxyphenethyl)-12-methyl-7,11,14,20-tetraoxo-7,8,9,10,11,12,13,14,17,18,19,19a,20,21,22,23-hexadecahydro-16H-pyrazino[2′,11:6,7][1]oxa[4,7,10,14]tetraazacycloheptadecino[17,16-c]quinoline-9-carboxamide]	0.072 µM	360%	
CC(C)C[C@H]1C(=O)N(C)[C@H](Cc2nc(C(F)(F)F)no2)C(=O)N[C@H](Cc2ccccc2)COc2ccc3ncc(F)cc3c2C(=O)N[C@H](C(=O)NC[C@@H](O)c2nc(C3CC3)no2)CC(=O)N1C [Example 966, (3S,7S,10R,13R)-13-benzyl-N-((R)-2-(3-cyclopropyl-1,2,4-oxadiazol-5-yl)-2-hydroxyethyl)-20-fluoro-7-isobutyl-6,9-dimethyl-1,5,8,11-tetraoxo-10-((3-(trifluoromethyl)-1,2,4-oxadiazol-5-yl)methyl)-1,2,3,4,5,6,7,8,9,10,11,12,13,14-tetradecahydro-[1]oxa[4,7,10,14]tetraazacycloheptadecino[16,17-f]quinoline-3-carboxamide]			EC50 [3]: 0.082 µM; Emax [4]: 404%
